Measurements from publication PMC11357446, “Searching for Novel HDAC6/Hsp90 Dual Inhibitors with Anti-Prostate Cancer Activity: In Silico Screening and In Vitro Evaluation” (Pharmaceuticals, 2024).
Like-named read-outs stand apart in the source and are kept apart here.

Assays:
Type in all cases: cell-based, human
[1] = system: PC-3 prostate cancer cells; assay: Cell viability assay (MTT) on PC-3 cells; settings: 72 h treatment, MTT, mean of three independent experiments ± SEM, read-out: PC-3 GI50
Procedure: (§1) The human prostate cancer cell line PC-3 (ATCC Cat# CRL-1435) was grown in Ham’s F12 (Biowest, Nuaillé, France) medium, while the human prostate cancer cell line LNCaP (ATCC Cat# CRL-1740) was grown in RPMI 1640 (Biowest, Nuaillé, France) medium. Both media were supplemented with 10% Fetal Bovine Serum (FBS, Gibco, Fisher Scientific Italia, Segrate, Italy), 2 mM glutamine, 100 U/mL penicillin, and 100 μg/mL streptomycin. PC-3 and LNCaP cells were maintained at 37 °C in a humidified 5% CO2 atmosphere.
(§2) PC-3 and LNCaP cells were seeded at a density of 4000 and 6000 cells/well into a 96-well plate, respectively, together with a calibration curve of known cell numbers. The following day, the cells were treated with the indicated test compounds at different concentrations starting at 75μM with 2-fold serial dilutions. Cell viability was evaluated after 72h by colorimetric MTT (PC-3) or PrestoBlue™ (LNCaP) cell viability reagents. A total of 0.5 mg/mL of thiazolyl blue tetrazolium bromide (MTT) (Sigma-Aldrich, St. Louis, MO, USA) in Ham’s F12 medium was added to the wells, and the plate was incubated at 37 °C for 2 h. Medium containing unconverted MTT was removed, and 100 μL of MTT solvent (4 mM HCl, 0.1% NP40, in isopropyl alcohol) was added to the wells in order to solubilize MTT crystals. After 15 min of incubation at room temperature, the absorbance values at 570 nm were obtained with a Multiskan FC Microplate Photometer (Thermo Fisher Scientific, Waltham, MA, USA). PrestoBlue reagent (#A13261, Thermo Fisher Scientific, Waltham, MA, USA) was added to the medium (1:10 v/v) and incubated for 1 h at 37 °C. Cell viability was calculated by quantifying PrestoBlue reduction by measuring the absorbance at 570 and 620 nm, according to the manufacturer’s protocol. The viability of untreated cells was arbitrarily set at 100%, and the concentration at which cellular growth is inhibited by 50% (GI50) was determined. Three independent experiments were performed.

[2] = system: LNCaP prostate cancer cells; assay: Cell viability assay (PrestoBlue) on LNCaP cells; settings: 72 h treatment, PrestoBlue, mean of three independent experiments ± SEM, read-out: LNCaP GI50
Procedure: as §1, §2

[3] = system: acetylated tubulin (Ac-Tub) in PC-3 cells; assay: Western blot of acetylated α-Tubulin in PC-3 cells; settings: 24 h at GI50 concentration, normalized with Tubulin
Procedure: (§3) To assess whether the observed antiproliferative activity of the selected compounds was a consequence of HDAC6-targeting, we examined the effect of the cell treatments on the expression levels of acetylated tubulin (Ac-Tub), a well-known HDAC6 target. LNCaP and PC-3 cells were treated with the tested compounds at their GI50 concentrations, and SDS-PAGE and western blot were performed. In addition, the acetylation levels of histone H3, which are mainly regulated by HDAC1, were also evaluated in order to exclude potential class I-HDAC off-target activities. We used Tubastatin-A and Geldanamycin as reference controls for cellular effects resulting from HDAC6- and Hsp90-inhibition, respectively. The results in Figure 2 show a significant increase in α-Tubulin acetylation in LNCaP cells after treatments with compounds 8, 11 and 18. Indeed, these compounds triggered a 2.9-, 5.1-, and 2.5-fold increase, respectively, compared to the control (DMSO). […].
Figure 2 Western blot analysis and relative quantification of the expression levels of acetylated-Tubulin (Ac-TUB), acetylated H3 (Ac-H3), and HSP70 in LNCaP (A,B) and PC-3 (C,D) cells treated for 24 h at GI50 concentration. […]
(§4) Cell treatment. […] Protein quantitation was performed with Pierce Detergent Compatible Bradford Assay (#23246, Thermo Fisher Scientific, MA, USA), and equivalent amounts of cellular extracts were resolved by SDS-PAGE, transferred to PVDF or Nitrocellulose membrane with Trans-Blot Turbo Transfer System (Bio-Rad, Hercules, CA, USA), and immunoblotted with the following primary antibodies, diluted 1:1000 in 1× TBS with 1 mg/mL BSA: Anti-Histone H3 (#PA5-16183, Invitrogen, Thermo Fisher Scientific, MA, USA), Anti-acetylated histone H3 (#sc-518011, Santa Cruz Biotechnology, Inc., Dallas, TX, USA), Anti-Tubulin (#E-AB-20073, Elabscience, Houston, TX, USA), Anti-acetylated α-tubulin (#sc-23950, Santa Cruz), and Anti-HSP70 (#4872S, Cell Signaling Technology, Inc., Danvers, MA, USA). […]

[4] = system: acetylated tubulin (Ac-Tub) in LNCaP cells; assay: Western blot of acetylated α-Tubulin in LNCaP cells; settings: 24 h at GI50 concentration, normalized with Tubulin
Procedure: as §3
Figure 2 Western blot analysis and relative quantification of the expression levels of acetylated-Tubulin (Ac-TUB), acetylated H3 (Ac-H3), and HSP70 in LNCaP (A,B) and PC-3 (C,D) cells treated for 24 h at GI50 concentration. Tubastatin-A was used as HDAC6-specific positive control, Geldanamycin (GELDA) as HSP90-specific positive control, and SAHA as pan-HDAC inhibitor. Protein expression was normalized with Tubulin levels (Ac-TUB and HSP70) or total H3 (Ac-H3). Quantification is reported as fold change in treated cells versus DMSO control (CTR), arbitrarily set at 1 (one sample t-test p-values: * p < 0.05, ** p < 0.01, *** p < 0.001, **** p < 0.0001; n = 3).
as §4, with “treatment. PC-3 and LNCaP cells were grown in 12-well tissue-culture plates and treated with test compounds at the evaluated GI50 concentration for each candidate inhibitor for 24 h. DMSO was used as a negative control, while Tubastatin-A and Geldanamycin were used as positive controls for HDAC6 and Hsp90 inhibition, respectively. Vorinostat (SAHA) was used as a pan-HDACi control.” for “treatment.”

O=C(c1cc(OCc2ccccc2)ccc1O)N1CCC(c2noc(C(F)(F)F)n2)CC1 [Compound 8]
GI50 [1]: 51.8 ± 0.6 µM | GI50 ([1]; Homo sapiens, PC-3, 72 h): ~50 µM | GI50 [2]: 51.6 ± 3.7 µM | GI50 ([2]; Homo sapiens, LNCaP, 72 h): ~50 µM | α-Tubulin acetylation, fold induction versus DMSO control [3]: 7.3 fold | α-Tubulin acetylation, fold increase compared to the control (DMSO) [4]: 2.9 fold

CC(C)[C@H](C(=O)NCc1ccc(C(=O)NO)cc1)N1Cc2ccccc2C1=O [Compound 11]
GI50 ([1]; Homo sapiens, PC-3, 72 h): 13.9 ± 2.9 µM | GI50 ([2]; Homo sapiens, LNCaP, 72 h): 41.3 ± 8.7 µM | α-Tubulin acetylation, fold induction versus DMSO control [3]: 5.5 fold | α-Tubulin acetylation, fold increase compared to the control (DMSO) [4]: 5.1 fold

O=C(Nc1ncccc1O)c1ccc(-c2noc(C(F)(F)F)n2)cc1 [Compound 18]
GI50 ([1]; Homo sapiens, PC-3, 72 h): 21 ± 5.4 µM | GI50 ([2]; Homo sapiens, LNCaP, 72 h): > 75 µM | α-Tubulin acetylation, fold induction versus DMSO control [3]: 4.9 fold | α-Tubulin acetylation, fold increase compared to the control (DMSO) [4]: 2.5 fold
